# According to patent US20150105252A1, “SUBSTITUTED PYRAZOLES AS HERBICIDES” (E I DU PONT DE NEMOURS AND COMPANY, priority 2013, published 2015):
# Legend:
# wheat = experiment: Test A postemergence; assay type: in vivo, Triticum aestivum
# In short: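 After sowing in a sand–loam mix, pots received compound preemergence by directed soil spray, or postemergence once plants reached the one- to two-leaf stage (2–10 cm). Formulation contained surfactant in a non-phytotoxic solvent. Injury was scored visually after ~10 greenhouse days, 0–100 scale.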
# barnyardgrass = experiment: Test B flood; assay type: in vivo, Echinochloa crus-galli; settings: 250 g ai/ha, visual rating on 0 to 100 scale (0 no effect, 100 complete control), 13 to 15 days
# In short: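 Greenhouse assay lasting 13 to 15 days. Treatment was into water flooding pots 3 cm deep, at the 2-leaf stage, with that level sustained afterwards. Scores compare treated with control plants visually, 100 denoting complete control and 0 no effect; a dash marks no test result.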
# crabgrass, large = experiment: Test C preemergence; assay type: in vivo, Digitaria sanguinalis; settings: for Plant response rating (scale of 0 to 100), Crabgrass, Large: Preemergence, 250 g ai/ha; for Crabgrass, Large plant response rating / Plant response rating, Crabgrass, Large: preemergence, 13 to 15 days; for Crabgrass, Large plant response rating: scale 0 to 100 (0 no effect, 100 complete control); for Plant response rating, Crabgrass, Large: 125 g ai/ha, scale 0 to 100, 0 = no effect, 100 = complete control
# In short: (§1)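 Visual control ratings on a 0–100 scale (100 = complete control) made against untreated controls after 13 to 15 days in greenhouse. Compounds applied in surfactant-containing solvent mixture, either preemergence to loam/sand-sown seeds or postemergence to 1- to 4-leaf plants (2–18 cm) in peat medium.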
# foxtail, giant = experiment: Test C preemergence; assay type: in vivo, Setaria faberii; settings: for Plant response rating (scale of 0 to 100), Foxtail, Giant: Preemergence, 250 g ai/ha; for Foxtail, Giant plant response rating / Plant response rating, Foxtail, Giant: preemergence, 13 to 15 days; for Foxtail, Giant plant response rating: scale 0 to 100 (0 no effect, 100 complete control); for Plant response rating, Foxtail, Giant: 125 g ai/ha, scale 0 to 100, 0 = no effect, 100 = complete control
# In short: as §1
# lambsquarters = experiment: Test C preemergence; assay type: in vivo, Chenopodium album; settings: for Plant response rating (scale of 0 to 100), Lambsquarters: Preemergence, 250 g ai/ha; for Lambsquarters plant response rating / Plant response rating, Lambsquarters: preemergence, 13 to 15 days; for Lambsquarters plant response rating: scale 0 to 100 (0 no effect, 100 complete control); for Plant response rating, Lambsquarters: 125 g ai/ha, scale 0 to 100, 0 = no effect, 100 = complete control
# In short: as §1
# morningglory [1] = experiment: Test C preemergence; assay type: in vivo, Ipomoea coccinea; settings: for Plant response rating (scale of 0 to 100), Morningglory: Preemergence, 250 g ai/ha; for Morningglory plant response rating / Plant response rating, Morningglory: preemergence, 13 to 15 days; for Morningglory plant response rating: scale 0 to 100 (0 no effect, 100 complete control); for Plant response rating, Morningglory: 125 g ai/ha, scale 0 to 100, 0 = no effect, 100 = complete control
# In short: as §1
# pigweed = experiment: Test C preemergence; assay type: in vivo, Amaranthus retroflexus; settings: for Plant response rating (scale of 0 to 100), Pigweed: Preemergence, 250 g ai/ha; for Pigweed plant response rating / Plant response rating, Pigweed: preemergence, 13 to 15 days; for Pigweed plant response rating: scale 0 to 100 (0 no effect, 100 complete control); for Plant response rating, Pigweed: 125 g ai/ha, scale 0 to 100, 0 = no effect, 100 = complete control
# In short: as §1
# waterhemp [2] = experiment: Test C preemergence; assay type: in vivo, Amaranthus rudis; settings: for Plant response rating (scale of 0 to 100), Waterhemp: Preemergence, 250 g ai/ha; for Waterhemp plant response rating / Plant response rating, Waterhemp: preemergence, 13 to 15 days; for Waterhemp plant response rating: scale 0 to 100 (0 no effect, 100 complete control); for Plant response rating, Waterhemp: 125 g ai/ha, scale 0 to 100, 0 = no effect, 100 = complete control
# In short: as §1
# velvetleaf = experiment: Test C preemergence; assay type: in vivo, Abutilon theophrasti; settings: for Plant response rating (scale of 0 to 100), Velvetleaf: Preemergence, 250 g ai/ha; for Velvetleaf plant response rating / Plant response rating, Velvetleaf: preemergence, 13 to 15 days; for Velvetleaf plant response rating: scale 0 to 100 (0 no effect, 100 complete control); for Plant response rating, Velvetleaf: 125 g ai/ha, scale 0 to 100, 0 = no effect, 100 = complete control
# In short: as §1
# morningglory [3] = experiment: Test C postemergence; assay type: in vivo, Ipomoea coccinea; settings: for Plant response rating (scale of 0 to 100 where 0 is no effect and 100 is complete control), Morningglory: Postemergence, 31 g ai/ha, visually evaluated after 13 to 15 days; for Morningglory plant response rating / Plant response rating, Morningglory: postemergence; for Morningglory plant response rating: 62 g ai/ha, scale 0 to 100
# In short: as §1
# nutsedge, yellow = experiment: Test C postemergence; assay type: in vivo, Cyperus esculentus; settings: for Plant response rating (scale of 0 to 100 where 0 is no effect and 100 is complete control), Nutsedge, Yellow: Postemergence, 31 g ai/ha, visually evaluated after 13 to 15 days; for Nutsedge, Yellow plant response rating / Plant response rating, Nutsedge, Yellow: postemergence; for Nutsedge, Yellow plant response rating: 62 g ai/ha, scale 0 to 100
# In short: as §1
# oilseed rape = experiment: Test C postemergence; assay type: in vivo, Brassica napus; settings: for Plant response rating (scale of 0 to 100 where 0 is no effect and 100 is complete control), Oilseed Rape: Postemergence, 31 g ai/ha, visually evaluated after 13 to 15 days; for Oilseed Rape plant response rating / Plant response rating, Oilseed Rape: postemergence; for Oilseed Rape plant response rating: 62 g ai/ha, scale 0 to 100
# In short: as §1
# waterhemp [4] = experiment: Test C postemergence; assay type: in vivo, Amaranthus rudis; settings: for Plant response rating (scale of 0 to 100 where 0 is no effect and 100 is complete control), Waterhemp: Postemergence, 31 g ai/ha, visually evaluated after 13 to 15 days; for Waterhemp plant response rating / Plant response rating, Waterhemp: postemergence; for Waterhemp plant response rating: 62 g ai/ha, scale 0 to 100
# In short: as §1
# [5] = Postemergence, 500 g ai/ha, 0 to 100 scale (0 no effect, 100 complete control)
# [6] = postemergence, 125 g ai/ha, about 10 days, visual rating on 0 to 100 scale (0 no effect, 100 complete control)
# [7] = 250 g ai/ha, scale 0 to 100 (0 no effect, 100 complete control)
# [8] = 125 g ai/ha, scale 0 to 100, 0 no effect, 100 complete control
structure (smiles),measurement,setting,value
CCNC(=O)c1cc(CC)n(Cc2ccnc(OC(F)F)c2)n1 [Compound 130],Wheat plant response rating,wheat; [5],90
same,Wheat plant response rating,wheat; [6],20
same,"Plant response rating, Barnyardgrass",barnyardgrass,40
same,"Plant response rating (scale of 0 to 100), Crabgrass, Large","crabgrass, large",100
same,"Crabgrass, Large plant response rating","crabgrass, large; 31 g ai/ha, visual rating",100
same,"Crabgrass, Large plant response rating","crabgrass, large; 62 g ai/ha",100
same,"Plant response rating, Crabgrass, Large","crabgrass, large",100
same,"Plant response rating (scale of 0 to 100), Foxtail, Giant","foxtail, giant",100
same,"Foxtail, Giant plant response rating","foxtail, giant; 31 g ai/ha, visual rating",70
same,"Foxtail, Giant plant response rating","foxtail, giant; 62 g ai/ha",95
same,"Plant response rating, Foxtail, Giant","foxtail, giant",100
same,"Plant response rating (scale of 0 to 100), Lambsquarters",lambsquarters,98
same,Lambsquarters plant response rating,"lambsquarters; 31 g ai/ha, visual rating",85
same,Lambsquarters plant response rating,lambsquarters; 62 g ai/ha,100
same,"Plant response rating, Lambsquarters",lambsquarters,100
same,"Plant response rating (scale of 0 to 100), Morningglory",morningglory [1],100
same,Morningglory plant response rating,"morningglory [1]; 31 g ai/ha, visual rating",65
same,Morningglory plant response rating,morningglory [1]; 62 g ai/ha,98
same,"Plant response rating, Morningglory",morningglory [1],100
same,"Plant response rating (scale of 0 to 100), Pigweed",pigweed,100
same,Pigweed plant response rating,"pigweed; 31 g ai/ha, visual rating",100
same,Pigweed plant response rating,pigweed; 62 g ai/ha,100
same,"Plant response rating, Pigweed",pigweed,100
same,"Plant response rating (scale of 0 to 100), Waterhemp",waterhemp [2],100
same,Waterhemp plant response rating,"waterhemp [2]; 31 g ai/ha, visual rating",100
same,Waterhemp plant response rating,waterhemp [2]; 62 g ai/ha,100
same,"Plant response rating, Waterhemp",waterhemp [2],100
same,"Plant response rating (scale of 0 to 100), Velvetleaf",velvetleaf,100
same,Velvetleaf plant response rating,"velvetleaf; 31 g ai/ha, visual rating",55
same,Velvetleaf plant response rating,velvetleaf; 62 g ai/ha,100
same,"Plant response rating, Velvetleaf",velvetleaf,90
same,"Plant response rating (scale of 0 to 100 where 0 is no effect and 100 is complete control), Morningglory",morningglory [3],35
same,Morningglory plant response rating,morningglory [3],75
same,"Plant response rating, Morningglory",morningglory [3]; [7],98
same,"Plant response rating, Morningglory",morningglory [3]; [8],85
same,"Plant response rating (scale of 0 to 100 where 0 is no effect and 100 is complete control), Nutsedge, Yellow","nutsedge, yellow",0
same,"Nutsedge, Yellow plant response rating","nutsedge, yellow",5
same,"Plant response rating, Nutsedge, Yellow","nutsedge, yellow; [7]",10
same,"Plant response rating, Nutsedge, Yellow","nutsedge, yellow; [8]",5
same,"Plant response rating (scale of 0 to 100 where 0 is no effect and 100 is complete control), Oilseed Rape",oilseed rape,35
same,Oilseed Rape plant response rating,oilseed rape,40
same,"Plant response rating, Oilseed Rape",oilseed rape; [7],60
same,"Plant response rating, Oilseed Rape",oilseed rape; [8],55
same,"Plant response rating (scale of 0 to 100 where 0 is no effect and 100 is complete control), Waterhemp",waterhemp [4],30
same,Waterhemp plant response rating,waterhemp [4],55
same,"Plant response rating, Waterhemp",waterhemp [4]; [7],80
same,"Plant response rating, Waterhemp",waterhemp [4]; [8],70
CCCNC(=O)c1cc(CC)n(Cc2ccnc(OC(F)F)c2)n1 [Compound 132],Wheat plant response rating,wheat; [5],90
same,Wheat plant response rating,wheat; [6],80
same,"Plant response rating, Barnyardgrass",barnyardgrass,60
same,"Plant response rating (scale of 0 to 100), Crabgrass, Large","crabgrass, large",100
same,"Crabgrass, Large plant response rating","crabgrass, large; 31 g ai/ha, visual rating",98
same,"Crabgrass, Large plant response rating","crabgrass, large; 62 g ai/ha",100
same,"Plant response rating, Crabgrass, Large","crabgrass, large",100
same,"Plant response rating (scale of 0 to 100), Foxtail, Giant","foxtail, giant",100
same,"Foxtail, Giant plant response rating","foxtail, giant; 31 g ai/ha, visual rating",95
same,"Foxtail, Giant plant response rating","foxtail, giant; 62 g ai/ha",100
same,"Plant response rating, Foxtail, Giant","foxtail, giant",100
same,"Plant response rating (scale of 0 to 100), Lambsquarters",lambsquarters,100
same,Lambsquarters plant response rating,"lambsquarters; 31 g ai/ha, visual rating",100
same,Lambsquarters plant response rating,lambsquarters; 62 g ai/ha,100
same,"Plant response rating, Lambsquarters",lambsquarters,100
same,"Plant response rating (scale of 0 to 100), Morningglory",morningglory [1],100
same,Morningglory plant response rating,"morningglory [1]; 31 g ai/ha, visual rating",60
same,Morningglory plant response rating,morningglory [1]; 62 g ai/ha,100
same,"Plant response rating, Morningglory",morningglory [1],100
same,"Plant response rating (scale of 0 to 100), Pigweed",pigweed,100
same,Pigweed plant response rating,"pigweed; 31 g ai/ha, visual rating",100
same,Pigweed plant response rating,pigweed; 62 g ai/ha,100
same,"Plant response rating, Pigweed",pigweed,100
same,"Plant response rating (scale of 0 to 100), Waterhemp",waterhemp [2],100
same,Waterhemp plant response rating,"waterhemp [2]; 31 g ai/ha, visual rating",100
same,Waterhemp plant response rating,waterhemp [2]; 62 g ai/ha,100
same,"Plant response rating, Waterhemp",waterhemp [2],100
same,"Plant response rating (scale of 0 to 100), Velvetleaf",velvetleaf,100
same,Velvetleaf plant response rating,"velvetleaf; 31 g ai/ha, visual rating",55
same,Velvetleaf plant response rating,velvetleaf; 62 g ai/ha,100
same,"Plant response rating, Velvetleaf",velvetleaf,100
same,"Plant response rating (scale of 0 to 100 where 0 is no effect and 100 is complete control), Morningglory",morningglory [3],30
same,Morningglory plant response rating,morningglory [3],75
same,"Plant response rating, Morningglory",morningglory [3]; [7],98
same,"Plant response rating, Morningglory",morningglory [3]; [8],80
same,"Plant response rating (scale of 0 to 100 where 0 is no effect and 100 is complete control), Nutsedge, Yellow","nutsedge, yellow",5
same,"Nutsedge, Yellow plant response rating","nutsedge, yellow",10
same,"Plant response rating, Nutsedge, Yellow","nutsedge, yellow; [7]",10
same,"Plant response rating, Nutsedge, Yellow","nutsedge, yellow; [8]",20
same,"Plant response rating (scale of 0 to 100 where 0 is no effect and 100 is complete control), Oilseed Rape",oilseed rape,25
same,Oilseed Rape plant response rating,oilseed rape,55
same,"Plant response rating, Oilseed Rape",oilseed rape; [7],65
same,"Plant response rating, Oilseed Rape",oilseed rape; [8],65
same,"Plant response rating (scale of 0 to 100 where 0 is no effect and 100 is complete control), Waterhemp",waterhemp [4],35
same,Waterhemp plant response rating,waterhemp [4],55
same,"Plant response rating, Waterhemp",waterhemp [4]; [7],80
same,"Plant response rating, Waterhemp",waterhemp [4]; [8],65
